Laboratory results reported in patent EP2465840A1, “Terpene ether” (CABB GmbH, priority 2010, dated 2012).

Experiments:
[1] = Foam height of terpene ether at t=0; type: physicochemical
Text: (§1) Die Eigenschaften von mehreren erfindungsgemäßen Terpenethern werden in Tabelle 19 zusammengefasst und mit denen anderen Terpenethern verglichen. Tabelle 19

Dynamic surface tension = type: physicochemical
Text: as §1

Compound | Schaumhöhe t=0 [1] | Dynamische Oberflächenspannung Blasenfrequenz 1 Hz (Dynamic surface tension) | Dynamische Oberflächenspannung Blasenfrequenz 3 Hz (Dynamic surface tension)
Tripropylenglykol-isobornylether [NP 3] | 0 mm | 45 mN/m | 63 mN/m
CC(=O)OCC(COC1CC2CCC1(C)C2(C)C)OC(C)=O (stereo not drawn) [NP7, Diacetin-isobornytether] | 0 mm | 52 mN/m | 57 mN/m
Milchsäure-isobornylether [NP 14] | 0 mm | 45 mN/m | 47 mN/m
Dipropylenglykol-düsobornylether [NP 22] | 0 mm | 64 mN/m | 68 mN/m
CC1(C)C2CCC1(C)C(OCCOC1CC3CCC1(C)C3(C)C)C2 (stereo not drawn) [NP 23, Ethylenglykol-diisobornylether] | 6 mm | 66 mN/m | 68 mN/m
S-(-)-Milchsäuremethylester-isobornylether [NP2] | 0 mm | 65 mN/m | 67 mN/m
CC1(C)C2CCC1(C)C(OCCOCCOCCO)C2 (stereo not drawn) [NP 6, Triethylenglykol-isobornylether] | 0 mm | 43 mN/m | 45 mN/m
